Test results as given in ChEMBL document CHEMBL1126122, “Non-prostanoid thromboxane A2 receptor antagonists with a dibenzoxepin ring system. 2” (J Med Chem, 1992).

Organism: Cavia porcellus
Assay: Compound was tested for its binding affinity at TXA2/PGH2 receptor by measuring its ability to displace [3H]U-46619 from guinea pig platelets at 0.1 uM
Settings: not given
In the case of `COC(=O)c1ccc2c(c1)/C(=C/Cn1cnc3cc(C)c(C)cc31)c1ccccc1CO2`, the inhibition is reported as 31%. `Cc1nc2ccccc2n1C/C=C1\c2ccccc2COc2ccc(C(=O)O)cc21` showed an inhibition of 4%. `O=C(O)c1ccc2c(c1)/C(=C\CCNS(=O)(=O)c1ccccc1)c1ccccc1CO2` gave an inhibition of 50%. In the case of `Cc1cc2ncn(C/C=C3\c4ccccc4COc4ccc(C(=O)N5CCOCC5)cc43)c2cc1C`, the inhibition is reported as -4%. `O=C(O)c1ccc2c(c1)/C(=C/Cn1cnc3cnccc31)c1ccccc1CO2` showed an inhibition of -6%. In the case of `O=C(O)c1ccc2c(c1)C(SCCn1cnc3ccccc31)c1ccccc1CO2` (stereo not drawn), the inhibition is reported as 9%. Compound `O=C(O)c1ccc2c(c1)/C(=C/Cn1nnc3ccccc31)c1ccccc1CO2` has an inhibition of 35%. `Cc1cc2ncn(C/C=C3\c4ccccc4COc4ccc(C(=O)Nc5ccccc5C(=O)O)cc43)c2cc1C` gave an inhibition of 6%.

Organism: Cavia porcellus
Assay: Inhibitory effect on the U-46619 induced platelet aggregation was determined ex vivo in the guinea pig
Format: functional
Settings: not given
Compound `O=C(O)Cc1ccc(CCNS(=O)(=O)c2ccc(Cl)cc2)cc1` [DALTROBAN] has an Aggregation of 0%. In the case of `O=C(O)c1ccc2c(c1)C(SCCNS(=O)(=O)c1ccccc1)c1ccccc1CO2` (stereo not drawn), the “Inhibition of U-46619-induced platelet aggregation” value is reported as 11.8%. For `O=C(O)c1ccc2c(c1)/C(=C/CNS(=O)(=O)c1ccccc1)c1ccccc1CO2`, the “Inhibition of U-46619-induced platelet aggregation” value was 25%. For `O=C(O)c1ccc2c(c1)/C(=C\CCNS(=O)(=O)c1ccccc1)c1ccccc1CO2`, the “Inhibition of U-46619-induced platelet aggregation” value was 59.3%. With `O=C([O-])c1ccc2c(c1)/C(=C\Cn1cnc3ccccc31)c1ccccc1CO2.[Na+]` the “Inhibition of U-46619-induced platelet aggregation” value was 0%. In the case of `O=C(O)c1ccc2c(c1)C(SCCc1nc3ccccc3[nH]1)c1ccccc1CO2` (stereo not drawn), the “Inhibition of U-46619-induced platelet aggregation” value is reported as 66.3%.

Test system: not listed separately
Assay: Binding affinity at TXA2/PGH2 receptor by displacement of [3H]U-46619 from human platelets
Settings: not given
In the case of `Cc1cccc2ncn(C/C=C3\c4ccccc4COc4ccc(C(=O)O)cc43)c12`, the Ki is reported as 8 nM. Compound `Cc1ccc2c(c1)ncn2C/C=C1\c2ccccc2COc2ccc(C(=O)O)cc21` has a Ki of 110 nM. `COc1cc2ncn(C/C=C3\c4ccccc4COc4ccc(C(=O)O)cc43)c2cc1OC` gave a Ki of 2.2 nM. `O=C(O)c1ccc2c(c1)/C(=C/Cn1cnc3cc(F)ccc31)c1ccccc1CO2` gave a Ki of 15 nM. In the case of `O=C(O)c1ccc2c(c1)/C(=C/Cn1cnc3cc(Cl)ccc31)c1ccccc1CO2`, the Ki is reported as 11 nM. `O=C(O)c1ccc2c(c1)/C(=C/Cn1cnc3ccc([N+](=O)[O-])cc31)c1ccccc1CO2` gave a Ki of 9.1 nM. Work on `COc1ccc2ncn(C/C=C3\c4ccccc4COc4ccc(C(=O)O)cc43)c2c1` yielded a Ki of 7.4 nM. `O=C(O)c1ccc2c(c1)/C(=C/Cn1cnc3cc(C(=O)NCc4ccccc4)ccc31)c1ccccc1CO2` showed a Ki of 7.4 nM. `COc1ccc2c(c1)ncn2C/C=C1\c2ccccc2COc2ccc(C(=O)O)cc21` gave a Ki of 17 nM. With `O=C(O)c1ccc2c(c1)/C(=C/Cn1cnc3ccc(Cl)cc31)c1ccccc1CO2` the Ki was 19 nM. In the case of `O=C(O)c1ccc2c(c1)/C(=C/Cn1cnc3ccc(C(=O)NCc4ccccc4)cc31)c1ccccc1CO2`, the Ki is reported as 14 nM. Compound `Cc1cccc2c1ncn2C/C=C1\c2ccccc2COc2ccc(C(=O)O)cc21` has a Ki of 38 nM. With `O=C(O)c1ccc2c(c1)/C(=C/Cn1cnc3cc([N+](=O)[O-])ccc31)c1ccccc1CO2` the Ki was 9.2 nM. With `Cc1cc(C)c2ncn(C/C=C3\c4ccccc4COc4ccc(C(=O)O)cc43)c2c1` the Ki was 7.6 nM. Compound `O=C(O)c1ccc2c(c1)/C(=C/Cn1cnc3cc(C(F)(F)F)ccc31)c1ccccc1CO2` has a Ki of 85 nM. Work on `O=C(O)c1ccc2c(c1)/C(=C/Cn1cnc3cc4c(cc31)OCO4)c1ccccc1CO2` yielded a Ki of 3.8 nM. In the case of `Cc1cc2ncn(C/C=C3\c4ccccc4COc4ccc(C(=O)O)cc43)c2cc1C`, the Ki is reported as 1.2 nM. For `Cc1ccc2c(ncn2C/C=C2\c3ccccc3COc3ccc(C(=O)O)cc32)c1C`, the Ki was 46 nM. `Cc1ccc2ncn(C/C=C3\c4ccccc4COc4ccc(C(=O)O)cc43)c2c1` showed a Ki of 12 nM. Compound `COc1cc(OC)c2ncn(C/C=C3\c4ccccc4COc4ccc(C(=O)O)cc43)c2c1` has a Ki of 9.1 nM. `COc1cc(OC)c2c(c1)ncn2C/C=C1\c2ccccc2COc2ccc(C(=O)O)cc21` showed a Ki of 6.7 nM.

Test system: not listed separately
Assay: Binding affinity at Thromboxane A2/ Prostaglandin H2 receptor by measuring its ability to displace [3H]U-46619 from guinea pig platelets at a compound concentration of 0.1 uM
Settings: Cavia porcellus
With `CSc1nc2ccccc2n1C/C=C1\c2ccccc2COc2ccc(C(=O)O)cc21` the inhibition was 11%.

Molecular target: not listed separately
Assay: Binding affinity at TXA2/PGH2 receptor by measuring its ability to displace [3H]U-46619 from guinea pig platelets
Settings: not given
`O=C(O)c1ccc2c(c1)C(SCCNS(=O)(=O)c1ccccc1)c1ccccc1CO2` (stereo not drawn) gave a Ki of 32 nM.

Same assay, conditions: Cavia porcellus; concentration not given here
Work on `O=C(O)c1ccc2c(c1)/C(=C/CCNS(=O)(=O)c1ccccc1)c1ccccc1CO2` yielded an inhibition of -6%.
